Measured values: patent publication US6114391A, “α-amino acid amides, preparation thereof and the therapeutical use thereof” (priority 1996, dated 2000)
“Also recorded” adds a separate entry of the source. Where two headings read alike, the source gives them in different places.

Legend:
convulsions = details: WO 95/18617 and WO 96/21640; cited from earlier work
[1] = test system: tonic hind limb extensions (maximal electroshock), rat; assay: maximal electroshock (MES) test in rat, incl. time course of anticonvulsant activity; type: in vivo; details: for Duration of action (time at which the protection is statistically significant) / Peak of activity (time of the maximal effect): MES, equiactive dose; for Duration of action (time at which the protection is statistically significant) / Peak of activity (time of the maximal effect) / ED50 / anticonvulsant activity in rat MES (in words): rat; for Duration of action (time at which the protection is statistically significant) / Peak of activity (time of the maximal effect) / anticonvulsant activity in rat MES (in words): p.o.; for ED50: po
Method: The compounds of the invention were evaluated in some pharmacological tests in order to investigate their potential anticonvulsant activity. To this end, compounds were screened in the maximal electroshock (MES) test. This model is widely used to assess the efficacy of antiepileptic agents against generalized and partial seizures. This study was performed in both rat and mouse by using the experimental procedure described in W. Losher et al., Epilepsy Res., 2 (1988), 145-181. Briefly, a 60 Hz alternate current (mice 50 mA, rats 150 mA) was delivered for 0.2 sec through corneal electrods by means of an electrical stimulator. […] Groups of 10 animals per dose were used and the ED50 was calculated from the dose-effect curve accordingly to Litchfield and Wilcoxon (J. Pharmacol. Exp. Ther., 96 (1949), 99-113).
In the rat MES model only the time course of anticonvulsant activity was evaluated. Groups of 10 rats were treated at their equiactive dose 30, 60, 120, 240, 360 and 480 min before the establishment of the electroshock. The peak of anticonvulsant activity and the duration of action were then evaluated.

[2] = test system: tonic hind limb extensions (maximal electroshock), mouse; assay: maximal electroshock (MES) test in mouse, suppression of tonic hind limb extensions; type: in vivo; details: for ED50: po, 1 h, read-out: ED50 MES
motor function, mouse = assay: horizontal screen test in mouse (impaired motor function, neurotoxicity; therapeutic index); type: in vivo; details: for T.I. (in words) / neurotoxicity / impairment of motor coordination (in words): mouse; for T.I. (in words): TD50/ED50; for neurotoxicity / impairment of motor coordination (in words): p.o., horizontal screen; for T.I. (therapeutic index): ratio of TD50 (horizontal screen) and ED50 (MES), mouse p.o.
Method: (§1) In this model mice are placed individually on top of a squire wire screen which is mounted horizontally on a metal rod, which is then rotated 180° so that mice are on the bottom of the screens. Impairment of the motor function is observed from the number of animals that falls from the screen or fail to climb to the top of the screens. The medial neurological toxic dose (TD50) is than calculated as above. The ratio of TD50 and ED50 refers to the therapeutic index (T.I.) for each compound. The T.I. is used to show a useful separation between neurotoxicity and antiepileptic activity. The larger the T.I. would indicate a better separation between the above activities and a good profile as anticonvulsants.

[3] = as above; type: in vivo; details: po, mouse
Method: as §1

[4] = in vivo; cited from earlier work
[5] = test system: tonic convulsions induced by bicuculline, mouse; assay: bicuculline-induced tonic convulsions in mouse; type: in vivo; details: for anticonvulsant activity against bicuculline (in words): p.o.; for ED50: po, bicuculline s.c.
Method: Further to the MES test in mouse, some compounds were also evaluated in the MES test in rat and in a chemical model of tonic convulsions induced by bicuculline accordingly to the procedure described in Swinyard E. A. et al., Antiepileptic Drugs, 3rd Edition, Raven Press, New York (1989).
As reference compound FCE 26743 (S)-2-(4-(3-fluorobenzyloxy)benzylamino)propanamide was used, disclosed in the prior art in EP-B1-0400495.

[6] = test system: electro-shock convulsions, mouse; details: claimed in WO 94/22808; cited from earlier work
[7] = mouse, p.o., 60 min after administration, HCl salts
[8] = horizontal screen test, p.o., HCl salts, read-out: TD50 Horizontal screen
[9] = in vivo, p.o., HCl salts, read-out: TD50 Horizontal screen

NC(=O)CN(CC(N)=O)C1CCc2ccccc21 (stereo not shown) [N,N-di-(2-acetamido)-1-aminoindan]
anticonvulsant activity (in words) (convulsions): not very effective | therapeutic index (in words) (convulsions): don't seem endowed with a particularly favorable therapeutic index

NC(=O)CNC1CCc2ccccc21 (racemic) [racemic N-(2-acetamido)-1-aminoindan, N-(2-acetamido)-1-aminoindan]
anticonvulsant activity (in words) (convulsions): not very effective | therapeutic index (in words) (convulsions): don't seem endowed with a particularly favorable therapeutic index

NC(=O)[C@@H](CO)NC1Cc2ccccc2C1 [CHF 2996]
Duration of action (time at which the protection is statistically significant) [1]: 2 h | Peak of activity (time of the maximal effect) [1]: 1 h | ED50 [1]: 32 mg/kg | anticonvulsant activity in rat MES (in words) [1]: anticonvulsant activity close to that found in the same model in mouse | anticonvulsant activity / potency in MES (in words) ([2]; mouse, p.o.): equipotent in the MES test | ED50 [2, 7]: 34 mg/kg | T.I. (in words) (motor function, mouse): higher T.I. | neurotoxicity / impairment of motor coordination (in words) (motor function, mouse): low value of neurotoxicity | T.I. (therapeutic index) (motor function, mouse): 44 | TD50 [3, 8]: > 1500 mg/kg

O=C1NC(=O)C(c2ccccc2)(c2ccccc2)N1 [phenytoin]
therapeutic index (in words) [4]: smaller therapeutic indexes

Cl.NC(=O)[C@H](CO)NC1Cc2ccccc2C1 [CHF 2993, (S)-3-hydroxy-2-(2-indanylamino)propanamide hydrochloride]
duration of action (in words) ([1]; MES time course): longest duration of action | Duration of action (time at which the protection is statistically significant) [1]: 6 h | Peak of activity (time of the maximal effect) [1]: 3 h | ED50 [1]: 31 mg/kg | anticonvulsant activity in rat MES (in words) [1]: anticonvulsant activity close to that found in the same model in mouse | anticonvulsant activity / potency in MES (in words) ([2]; mouse, p.o.): equipotent in the MES test | ED50 [2, 7]: 44 mg/kg | anticonvulsant activity against bicuculline (in words) [5]: in the same order of potency of their MES anticonvulsant activity | ED50 [5]: 65 mg/kg | T.I. (therapeutic index) (motor function, mouse): 27 | TD50 [3, 9]: 1170 mg/kg

C[C@H](NCc1ccc(OCc2cccc(F)c2)cc1)C(N)=O [FCE 26743, (S)-2-(4-(3-fluorobenzyloxy)benzylamino)propanamide, reference compound]
Duration of action (time at which the protection is statistically significant) [1]: 1 h | Peak of activity (time of the maximal effect) [1]: 0.5 h | ED50 [1]: 11 mg/kg | anticonvulsant activity in rat MES (in words) [1]: anticonvulsant activity close to that found in the same model in mouse | anticonvulsant activity against bicuculline (in words) [5]: in the same order of potency of their MES anticonvulsant activity | ED50 [5]: 20 mg/kg

NC(=O)[C@H](CO)N[C@@H]1CCc2ccccc2C1 [CHF 2991]
anticonvulsant activity / potency in MES (in words) ([2]; mouse, p.o.): A good profile of anticonvulsant activity | ED50 [2, 7]: 38 mg/kg | T.I. (therapeutic index) (motor function, mouse): 29 | TD50 [3, 8]: 1100 mg/kg

NC(=O)[C@@H](CO)N[C@H]1CCc2ccccc2C1 [CHF 2983, 3-hydroxy-2-(R)-(1,2,3,4-tetrahydro-naphthalen-2-(S)ylamino)propanamide]
Duration of action (time at which the protection is statistically significant) [1]: 2 h | Peak of activity (time of the maximal effect) [1]: 1 h | ED50 [1]: 19 mg/kg | anticonvulsant activity in rat MES (in words) [1]: more potent | anticonvulsant activity / potency in MES (in words) ([2]; mouse, p.o.): A good profile of anticonvulsant activity | ED50 [2, 7]: 43 mg/kg | anticonvulsant activity against bicuculline (in words) [5]: in the same order of potency of their MES anticonvulsant activity | ED50 [5]: 62 mg/kg | T.I. (therapeutic index) (motor function, mouse): 30 | TD50 [3, 8]: 1300 mg/kg

Cl.NC(=O)CNC1Cc2ccccc2C1 [CHF 3381, 2-(2-indanylamino)acetamide hydrochloride]
ED50 ([2]; Mus musculus): 21 mg/kg | anticonvulsant activity / potency in MES (in words) ([2]; mouse, p.o., hydrochloride): more potent in inhibiting MES; also recorded: more potent as an anticonvulsant than the 1-aminoindane of the prior art | T.I. (in words) (motor function, mouse): higher T.I. than the prior art 1-aminoindane compound 2 | neurotoxicity / impairment of motor coordination (in words) (motor function, mouse): more neurotoxic | T.I. (therapeutic index) (motor function, mouse): 13 | TD50 [3, 9]: 274 mg/kg

NC(=O)CNC1CCc2ccc(F)cc21 (stereo not shown) [N-(2-acetamido)-6-fluoro-1-aminoindan]
anticonvulsant activity (in words) (convulsions): not very effective | therapeutic index (in words) (convulsions): don't seem endowed with a particularly favorable therapeutic index

CN(C1Cc2ccccc2C1)[C@H](CO)C(N)=O.Cl [CHF 3440, (R)-3-hydroxy-2-(N-methyl-2-indanylamino)propanamide hydrochloride]
anticonvulsant activity / potency in MES (in words) ([2]; mouse, p.o.): same anticonvulsant activity | ED50 [2, 7]: 35 mg/kg | neurotoxicity / impairment of motor coordination (in words) (motor function, mouse): increase of the neurotoxicity | T.I. (therapeutic index) (motor function, mouse): 20 | TD50 [3, 9]: 689 mg/kg

NC(=O)N1c2ccccc2C=Cc2ccccc21 [carbamazepine]
therapeutic index (in words) [4]: smaller therapeutic indexes

NC(=O)CNC1CCCc2ccccc21 (stereo not shown) [N-(2-acetamido)-1-aminotetralin]
anticonvulsant activity (in words) (convulsions): not very effective | therapeutic index (in words) (convulsions): don't seem endowed with a particularly favorable therapeutic index

C[C@H](NC1Cc2ccccc2C1)C(N)=O [CHF 3431, (S) 2-(2-indanylamino)propionamide]
anticonvulsant activity / potency in MES (in words) ([2]; mouse, p.o.): more potent in inhibiting MES | ED50 [2, 7]: 22 mg/kg | neurotoxicity / impairment of motor coordination (in words) (motor function, mouse): more neurotoxic | T.I. (therapeutic index) (motor function, mouse): 11 | TD50 [3, 8]: 251 mg/kg

NC(=O)CN[C@H]1CCc2ccccc21 [TEVA Comp. 2, (S)-2-(indanylamino)acetamide, reference compound]
ED50 [2, 7]: 38 mg/kg | T.I. (therapeutic index) (motor function, mouse): 8 | TD50 ([3]; in vivo): 299 mg/kg

CS(=O)(=O)O.NC(=O)C(CO)NCc1ccc(OCCCc2ccccc2)cc1 (stereo not shown) [FCE 28245, 3-hydroxy-2-(4-(3-phenylpropyloxy)benzylamino)propanamide methanesulphonate, reference compound]
ED50 [2, 7]: 180 mg/kg | anticonvulsant activity in electro-shock convulsions (in words) [6]: claimed to be active | T.I. (therapeutic index) (motor function, mouse): 9 | TD50 ([3]; in vivo): 1670 mg/kg

CC(NC1CCc2ccccc21)C(N)=O (stereo not shown) [N-(2-propionamido)-1-aminoindan]
anticonvulsant activity (in words) (convulsions): not very effective | therapeutic index (in words) (convulsions): don't seem endowed with a particularly favorable therapeutic index
